Values quoted from earlier work, collected in PMC10687071 (The Journal of Biological Chemistry, 2023).

How the values were obtained:
[1] = tested on: PAS domains of EAG channels; parameters: method as in PMID 31315662, PMID 32047112; details: cited from earlier work
[2] = tested on: PAS domains of ERG3 channels; parameters: method as in PMID 32723862; details: cited from earlier work

Row | SMILES | Binding to PAS domains of EAG channels [1] | Binding to PAS domains of ERG3 channels [2]
1 | CN(C)CCCN1c2ccccc2Sc2ccc(Cl)cc21 [chlorpromazine] | bind | –
2 | C=CC1=C(C)c2cc3[n-]c(cc4[n-]c(cc5nc(cc1n2)C(C)=C5C=C)c(C)c4CCC(=O)O)c(CCC(=O)O)c3C.[Fe+2] [heme] | – | bind
3 | C=CCCCCCCCCC(=O)O [undecylenic acid] | bind | –
